Results taken from publication PMC6019266 (Biochemistry, 2017).
≈ marks a conversion by molar mass, not a printed value. Where two headings read alike, the source gives them in different places.

How the values were obtained:
[1] = tested on: M. tuberculosis strain mc^26230; type: cell-based, Mycobacterium tuberculosis; conditions: disc diffusion, 96 h, 37 °C
H. pylori (J99) = assay: Antibacterial activity assay in liquid culture; type: cell-based, Helicobacter pylori
Rv0091 = Rv0091 (Mycobacterium tuberculosis, UniProt P9WJM3); assay: Dissociation constants; type: biochemical
[2] = tested on: M. smegmatis strain mc^2155; assay: Disc-diffusion growth inhibition assay; type: cell-based, Mycobacterium smegmatis; conditions: 96 h, 37 °C
Vibrio cholerae = conditions: cited from earlier work
E. coli = conditions: cited from earlier work
[3] = tested on: auto-inducer (AI-2) production; conditions: cited from earlier work

Chain of Rv0091 (P9WJM3 whole entry, looked up, the tested form may be a part): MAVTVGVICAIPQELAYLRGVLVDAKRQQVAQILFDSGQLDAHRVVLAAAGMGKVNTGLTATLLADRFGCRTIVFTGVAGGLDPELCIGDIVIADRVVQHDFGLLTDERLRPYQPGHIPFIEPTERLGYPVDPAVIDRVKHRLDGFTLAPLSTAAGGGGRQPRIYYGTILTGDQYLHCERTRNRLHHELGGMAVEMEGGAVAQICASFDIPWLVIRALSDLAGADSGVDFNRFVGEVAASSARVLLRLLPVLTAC

CCCCCCSC[C@H]1CN(Cc2c[nH]c3c(N)ncnc23)C[C@@H]1O [Compound 14]
zone of clearance ([1]; 1000 μg/mL): small zone of clearance
more potent than tetracycline (H. pylori (J99)): 6 times
IC50 (antibacterial activity; MIC50 in methods) (H. pylori (J99); 72 h, 37 °C, OD600): 0.013 ± 0.0018 µg/mL (≈ 0.0358 µM)
bound tighter than MT-DADMe-ImmA (11) (Rv0091; ratio of Ki values, Table 1): 17 times
zone of clearance ([2]; 1000 μg/mL): small zone of clearance

CCCCSCC1CN(Cc2c[nH]c3c(N)ncnc23)C[C@H]1O (stereo partly drawn) [Compound 13]
toxicity to growth (Vibrio cholerae): not toxic
weaker binding than HT-DADMe-ImmA (Rv0091; ratio of dissociation constants): 15 times
toxicity to growth (E. coli): not toxic
effect on production of auto-inducer (AI-2) [3]: inhibited production

CSC[C@@H]1CN(Cc2c[nH]c3c(N)ncnc23)C[C@H]1O [Compound 20]
activity toward Rv0091 (Rv0091; at concentrations of ≤400 μM): no activity

NC[C@H]1O[C@H](O[C@H]2[C@H](O)[C@@H](O[C@H]3O[C@H](CO)[C@@H](O)[C@H](N)[C@H]3O)[C@H](N)C[C@@H]2N)[C@H](O)[C@@H](O)[C@@H]1O [Kanamycin, reference compound]
zone of clearance ([1]; 100 μg/mL, antibiotic control): large zones of clearance
zone of clearance ([2]; 100 μg/mL, antibiotic control): large zones of clearance
